These results are taken from ChEMBL document CHEMBL1909046, “DrugMatrix in vitro pharmacology data”.

Experiment [1] addresses Vasopressin V1a receptor (Homo sapiens, UniProt P37288). Type of experiment: cell membranes, Membrane. To be noted: hek293.
In experiment [2] the target is T1, Cathepsin G (Homo sapiens, UniProt P08311).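 Further: inhibition of Cathepsin G enzyme activity, tested on an AMC-conjugated peptide substrate; in other assays of this panel Not Active means under 50% inhibition at 10 µM.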
T1 sequence (P08311 whole entry): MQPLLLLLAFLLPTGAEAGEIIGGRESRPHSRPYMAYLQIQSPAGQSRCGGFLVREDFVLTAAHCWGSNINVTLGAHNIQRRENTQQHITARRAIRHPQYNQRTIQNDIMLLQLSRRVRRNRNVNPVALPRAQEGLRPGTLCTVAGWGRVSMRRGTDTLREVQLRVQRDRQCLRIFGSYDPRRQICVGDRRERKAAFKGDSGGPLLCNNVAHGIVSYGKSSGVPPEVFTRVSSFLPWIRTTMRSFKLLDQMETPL
Type of experiment: tissue-based. To be noted: neutrophil.

In experiment [3] the target is Sodium-dependent noradrenaline transporter (Homo sapiens, UniProt P23975). The experiment can be described thus: DRUGMATRIX: Norepinephrine Transporter radioligand binding (ligand: [125I] RTI-55). The experiment is classed as cell membranes, MDCK, Membrane. To be noted: Not Active = under 50% inhibition at 10 µM.
The target of experiment [4] is T2, Alpha-2C adrenergic receptor (Homo sapiens, UniProt P18825).
T2 sequence (P18825 whole entry): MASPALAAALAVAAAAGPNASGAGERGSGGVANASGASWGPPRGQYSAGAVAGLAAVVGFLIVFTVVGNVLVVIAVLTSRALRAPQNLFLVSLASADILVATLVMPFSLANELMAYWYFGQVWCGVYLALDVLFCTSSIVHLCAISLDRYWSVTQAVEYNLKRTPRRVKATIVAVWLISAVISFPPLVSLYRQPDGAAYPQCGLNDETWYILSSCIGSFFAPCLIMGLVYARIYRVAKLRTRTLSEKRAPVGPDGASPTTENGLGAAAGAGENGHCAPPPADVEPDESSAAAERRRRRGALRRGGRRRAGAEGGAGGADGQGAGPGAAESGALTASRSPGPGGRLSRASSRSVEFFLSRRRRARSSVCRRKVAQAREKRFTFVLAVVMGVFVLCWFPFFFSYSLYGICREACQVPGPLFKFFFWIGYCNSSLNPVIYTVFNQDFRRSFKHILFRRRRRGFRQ
The experiment can be described thus: DRUGMATRIX: Adrenergic Alpha-2C radioligand binding (ligand: [3H] MK-912). Type of experiment: cell membranes, Sf9, Membrane. To be noted: sf9.

For experiment [5], the target named is Mu-type opioid receptor (Homo sapiens, UniProt P35372). The experiment can be described thus: DRUGMATRIX: Opiate mu (OP3, MOP) radioligand binding (ligand: [3H] Diprenorphine). The experiment is classed as cell membranes, CHO-K1, Membrane. To be noted: cho-k1; Not Active = under 50% inhibition at 10 µM.
Experiment [6] deals with cGMP-specific 3',5'-cyclic phosphodiesterase (Homo sapiens, UniProt O76074). The experiment is described as follows: DRUGMATRIX: Phosphodiesterase PDE5 enzyme inhibition (substrate: [3H]cGMP + cGMP). Type of experiment: tissue-based, Platelet. To be noted: platelet; Not Active = under 50% inhibition at 10 µM.
For experiment [7], the target named is T3, Polyunsaturated fatty acid lipoxygenase ALOX15 (Oryctolagus cuniculus, UniProt P12530).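 Further: inhibition of 15-lipoxygenase enzyme activity measured with linoleic acid as the substrate; in other assays of this panel Not Active means under 50% inhibition at 10 µM.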
T3 sequence (P12530 whole entry): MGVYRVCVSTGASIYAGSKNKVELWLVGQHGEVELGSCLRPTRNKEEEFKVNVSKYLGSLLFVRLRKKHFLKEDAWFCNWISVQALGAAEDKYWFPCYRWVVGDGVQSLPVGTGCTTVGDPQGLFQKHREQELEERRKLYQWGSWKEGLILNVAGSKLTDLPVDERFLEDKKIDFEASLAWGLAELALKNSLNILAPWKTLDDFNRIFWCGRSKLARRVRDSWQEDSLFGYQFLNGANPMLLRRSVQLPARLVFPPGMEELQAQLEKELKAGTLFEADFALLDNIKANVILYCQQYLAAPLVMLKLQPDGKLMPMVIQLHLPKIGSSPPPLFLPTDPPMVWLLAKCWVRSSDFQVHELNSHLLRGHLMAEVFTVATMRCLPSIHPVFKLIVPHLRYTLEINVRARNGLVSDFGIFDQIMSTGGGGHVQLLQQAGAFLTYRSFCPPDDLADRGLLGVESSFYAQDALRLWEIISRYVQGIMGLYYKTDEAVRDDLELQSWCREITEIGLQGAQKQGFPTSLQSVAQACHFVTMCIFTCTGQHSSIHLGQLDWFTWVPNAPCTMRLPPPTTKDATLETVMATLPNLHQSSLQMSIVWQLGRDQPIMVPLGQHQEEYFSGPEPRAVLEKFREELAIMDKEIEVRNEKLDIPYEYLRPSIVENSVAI
The experiment can be described thus: biochemical. The experiment is classed as tissue-based, Reticulocytes.

Sequence of Mu-type opioid receptor (P35372 whole entry): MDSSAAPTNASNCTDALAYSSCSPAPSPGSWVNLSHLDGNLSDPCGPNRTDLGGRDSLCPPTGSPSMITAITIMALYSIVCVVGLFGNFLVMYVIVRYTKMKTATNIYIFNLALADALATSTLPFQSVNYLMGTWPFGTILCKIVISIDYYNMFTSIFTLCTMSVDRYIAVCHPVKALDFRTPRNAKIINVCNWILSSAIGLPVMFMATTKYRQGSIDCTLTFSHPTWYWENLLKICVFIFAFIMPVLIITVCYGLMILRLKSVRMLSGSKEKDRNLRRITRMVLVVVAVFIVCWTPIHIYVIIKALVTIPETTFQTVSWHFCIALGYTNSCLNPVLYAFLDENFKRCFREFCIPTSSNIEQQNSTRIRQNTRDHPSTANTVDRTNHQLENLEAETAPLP
Sequence of Sodium-dependent noradrenaline transporter (P23975 whole entry): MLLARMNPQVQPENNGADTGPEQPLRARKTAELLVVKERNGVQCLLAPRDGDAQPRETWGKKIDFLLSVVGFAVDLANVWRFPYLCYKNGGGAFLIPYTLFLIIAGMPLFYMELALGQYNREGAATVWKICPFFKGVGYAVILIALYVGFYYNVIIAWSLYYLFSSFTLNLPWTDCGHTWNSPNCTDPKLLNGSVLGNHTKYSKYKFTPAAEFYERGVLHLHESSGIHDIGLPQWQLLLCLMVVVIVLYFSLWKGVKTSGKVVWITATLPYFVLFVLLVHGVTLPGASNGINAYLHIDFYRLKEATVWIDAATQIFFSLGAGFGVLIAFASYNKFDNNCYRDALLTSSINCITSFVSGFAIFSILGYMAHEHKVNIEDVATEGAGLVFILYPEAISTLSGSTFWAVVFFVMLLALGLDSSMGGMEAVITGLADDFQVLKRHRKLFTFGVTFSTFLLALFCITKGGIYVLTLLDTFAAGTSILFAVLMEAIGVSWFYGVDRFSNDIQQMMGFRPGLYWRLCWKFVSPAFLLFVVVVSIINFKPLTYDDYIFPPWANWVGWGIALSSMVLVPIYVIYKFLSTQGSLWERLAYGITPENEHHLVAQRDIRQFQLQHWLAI
Sequence of Vasopressin V1a receptor (P37288 whole entry): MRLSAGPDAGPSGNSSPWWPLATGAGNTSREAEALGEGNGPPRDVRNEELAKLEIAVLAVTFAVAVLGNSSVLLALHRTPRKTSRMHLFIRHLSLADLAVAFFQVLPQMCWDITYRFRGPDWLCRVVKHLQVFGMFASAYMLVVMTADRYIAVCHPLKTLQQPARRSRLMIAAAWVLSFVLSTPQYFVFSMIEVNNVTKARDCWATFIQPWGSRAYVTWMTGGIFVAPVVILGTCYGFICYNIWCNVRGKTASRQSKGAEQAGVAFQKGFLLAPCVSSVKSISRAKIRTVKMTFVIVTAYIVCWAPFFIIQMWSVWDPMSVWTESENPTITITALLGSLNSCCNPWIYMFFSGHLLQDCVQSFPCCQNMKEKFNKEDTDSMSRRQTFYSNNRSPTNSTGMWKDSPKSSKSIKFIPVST

One may read the IC50 as the point on the concentration scale where inhibition reaches its midpoint. Turning to `COC(=O)Nc1nc2ccc(C(=O)c3cccs3)cc2[nH]1` [NOCODAZOLE], the IC50 result in experiment [1], in experiment [2], in experiment [3] (mdck), in experiment [4], in experiment [5] and in experiment [6] was “Not Active” throughout. Further, the IC50 entry in experiment [7] (reticulocytes) is recorded as “Not Active”.

With `C#CC1(O)CC[C@H]2[C@@H]3CCC4=CC(=O)CC[C@@H]4[C@H]3CC[C@@]21CC` (some centres not stated) [NORGESTREL], the IC50 entry in experiment [1], in experiment [2], in experiment [3] (mdck), in experiment [4], in experiment [5] and in experiment [6] was “Not Active” throughout. For the same compound, the IC50 entry in experiment [7] (reticulocytes) is given as “Not Active”.

With `COC(=O)Nc1nc2ccc([S+]([O-])c3ccccc3)cc2[nH]1` (configuration not stated) [OXFENDAZOLE], the IC50 entry in experiment [1], in experiment [2], in experiment [3] (mdck), in experiment [4], in experiment [5] and in experiment [6] was “Not Active” throughout. The IC50 entry in experiment [7] (reticulocytes) is listed as “Not Active”.

Take `CC(=O)O[C@H]1C(=O)[C@@]2(C)[C@H]([C@H](OC(=O)c3ccccc3)[C@]3(O)C[C@H](OC(=O)[C@H](O)[C@@H](NC(=O)c4ccccc4)c4ccccc4)C(C)=C1C3(C)C)[C@]1(OC(C)=O)CO[C@@H]1C[C@@H]2O` [PACLITAXEL]: the IC50 result in experiment [1], in experiment [2], in experiment [3] (mdck), in experiment [4], in experiment [5] and in experiment [6] was “Not Active” in each case. The IC50 entry in experiment [7] (reticulocytes) was “Not Active”.

In the case of `CC(C)NCC(O)COc1cccc2[nH]ccc12` (configuration not stated) [PINDOLOL], the IC50 result in experiment [1], in experiment [2], in experiment [3] (mdck), in experiment [4], in experiment [5] and in experiment [6] was “Not Active” throughout. Besides, in experiment [7] (reticulocytes), the IC50 entry is recorded as “Not Active”.

Take `CCn1cc(C(=O)O)c(=O)c2cnc(N3CCCC3)nc21` [PIROMIDIC ACID]: the IC50 result in experiment [1], in experiment [2], in experiment [3] (mdck), in experiment [4], in experiment [5] and in experiment [6] was “Not Active” in each case. Moreover, the IC50 result in experiment [7] (reticulocytes) is recorded as “Not Active”.

Turning to `C[n+]1ccccc1/C=N/O.[Cl-]` [PRALIDOXIME CHLORIDE], the IC50 entry in experiment [1], in experiment [2], in experiment [3] (mdck), in experiment [4], in experiment [5] and in experiment [6] was “Not Active” throughout. Also, the IC50 entry in experiment [7] (reticulocytes) was “Not Active”.

On to `C[C@]12C=CC(=O)C=C1CC[C@@H]1[C@@H]2[C@@H](O)C[C@@]2(C)[C@H]1CC[C@]2(O)C(=O)CO` [PREDNISOLONE], for which the IC50 entry in experiment [1], in experiment [2], in experiment [3] (mdck), in experiment [4], in experiment [5] and in experiment [6] was “Not Active” in each case. The IC50 entry in experiment [7] (reticulocytes) is recorded as “Not Active”.

For `CC(=O)[C@H]1[C@H](C#N)C[C@H]2[C@@H]3CC=C4C[C@@H](O)CC[C@]4(C)[C@H]3CC[C@@]21C` [PREGNENOLONE CARBONITRILE], the concentration for half-maximal inhibition (IC50) entry in experiment [1], in experiment [2], in experiment [3] (mdck), in experiment [4], in experiment [5] and in experiment [6] was “Not Active” each time. In addition, the IC50 entry in experiment [7] (reticulocytes) is “Not Active”.

With `CCCN(CCC)S(=O)(=O)c1ccc(C(=O)O)cc1` [PROBENECID], the IC50 result in experiment [1], in experiment [2], in experiment [3] (mdck), in experiment [4], in experiment [5] and in experiment [6] was “Not Active” throughout. Also, in experiment [7] (reticulocytes), the IC50 result is listed as “Not Active”.

For the compound `CCCOc1ccc(C(=O)OCCN(CC)CC)cc1N` [PROPARACAINE], the IC50 result in experiment [1], in experiment [2], in experiment [3] (mdck), in experiment [4], in experiment [5] and in experiment [6] was “Not Active” in each case. In addition, in experiment [7] (reticulocytes), the IC50 entry is reported as “Not Active”.

The term Ki denotes the dissociation constant of the complex between target and ligand, obtained from inhibition or displacement. As to `CC(C)c1cccc(C(C)C)c1O` [PROPOFOL], the IC50 entry is “Not Active” in experiment [1]; “Not Active” in experiment [2]; 9.39 µM in experiment [3] (read-out: IC50); “Not Active” in experiment [4]; “Not Active” in experiment [5]; “Not Active” in experiment [6]. The IC50 in experiment [7] (read-out: IC50) is 7.6 µM. Moreover, the Ki in experiment [3] (read-out: Ki) was 9.32 µM.

Regarding `Oc1cccc(O)c1O` [PYROGALLOL], the half-inhibitory concentration (IC50) result in experiment [1], in experiment [2], in experiment [3] (mdck), in experiment [4], in experiment [5] and in experiment [6] was “Not Active” throughout. In experiment [7] (read-out: IC50), the IC50 is 2.11 µM.
